# Like-named read-outs stand apart in the source and are kept apart here. Residues, ends and D or L forms follow the SMILES beside them.
# What was measured:
# Type in all cases: cell-based
# [1] = tested on: ten test organisms (four Gram-negative bacteria, three Gram-positive bacteria, three fungi)
# Description: Ten organisms obtained from the American Type Culture Collection (ATCC; Rockville, MD) were used for antimicrobial assays. Four Gram-negative bacteria included Escherichia coli ATCC 25922, Pseudomonas aeruginosa ATCC 27853, Klebsiella oxytoca ATCC 49131, and Proteus vulgaris ATCC 49132. The three Gram-positive bacteria were Staphylococcus aureus 29213, Micrococcus luteus ATCC 49,732, and Enterococcus faecalis ATCC 29212. The three fungi were Candida albicans ATCC 37092, Candida kefyr ATCC 37095, and Candida tropicalis ATCC 37097. The clinical isolates were obtained from Singapore General Hospital (SGH). […]
# Antimicrobial Assays. […] After additional incubation at 37 °C for 16–24 h, the diameter of the clear zone surrounding the wells (colony-free) was measured under a microscope. Antimicrobial activities were expressed in units (0.1 mm = 1 unit), and the MICs (in µM) were determined from the x-intercepts of the dose-response curves. […]
# The minimum inhibitory concentrations (MICs) of four series of branched peptides and two standards, tachyplesin-1 and the dendrimer D4R, against four Gram-negative bacteria, three Gram-positive bacteria, and three fungi were determined using a two-stage radial diffusion assay in both low- (without NaCl) and high-salt (with 100 mM NaCl) conditions. […]
# [2] = tested on: Escherichia coli ATCC 25922
# How it was run: (§1)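 High-salt runs added 100 mM NaCl to the underlay gel, which otherwise contained 10 mM sodium phosphate, 0.03% TSB and 0.02% Tween-20 seeded with 1–4 × 10^6 CFU/mL. Colony-free zones around peptide wells after overnight growth gave MICs from dose-response x-intercepts.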
# [3] = tested on: Klebsiella oxytoca ATCC 49131
# How it was run: as §1
# [4] = tested on: Pseudomonas aeruginosa ATCC 27853
# How it was run: as §1
# [5] = tested on: Micrococcus luteus ATCC 49,732
# How it was run: as §1
# [6] = tested on: Staphylococcus aureus 29213
# How it was run: as §1
# [7] = tested on: Candida albicans ATCC 37092
# How it was run: as §1
# [8] = tested on: Enterococcus faecalis ATCC 29212
# How it was run: as §1
# [9] = tested on: Candida tropicalis ATCC 37097
# How it was run: as §1
# Candida kefyr ATCC 37095 = tested on: Candida kefyr ATCC 37095
# How it was run: as §1
# [10] = tested on: Proteus vulgaris ATCC 49132
# How it was run: as §1
structure (smiles),measurement,setting,value
"CC(C)C[C@H](NC(=O)[C@H](CCCNC(=N)N)NC(=O)[C@H](CCCNC(=N)N)NC(=O)[C@@H](N)Cc1ccc(O)cc1)C(=O)NCCCC[C@H](NC(=O)[C@H](CC(C)C)NC(=O)[C@H](CCCNC(=N)N)NC(=O)[C@H](CCCNC(=N)N)NC(=O)[C@@H](N)Cc1ccc(O)cc1)C(=O)NCCCC[C@H](NC(=O)[C@H](CCCCNC(=O)[C@H](CC(C)C)NC(=O)[C@H](CCCNC(=N)N)NC(=O)[C@H](CCCNC(=N)N)NC(=O)[C@@H](N)Cc1ccc(O)cc1)NC(=O)[C@H](CC(C)C)NC(=O)[C@H](CCCNC(=N)N)NC(=O)[C@H](CCCNC(=N)N)NC(=O)[C@@H](N)Cc1ccc(O)cc1)C(N)=O [D4Y] (HELM PEPTIDE1{Y.R.R.L.K.K.[am]}|PEPTIDE2{Y.R.R.L}|PEPTIDE3{Y.R.R.L.K}|PEPTIDE4{Y.R.R.L}$PEPTIDE1,PEPTIDE2,5:R3-4:R2|PEPTIDE3,PEPTIDE4,5:R3-4:R2|PEPTIDE1,PEPTIDE3,6:R3-5:R2$$$V2.0; N-terminus and C-terminus assumed)","MIC in four other organisms, high-salt",[1]; 3 h,< 10 µM
same,antimicrobial activity under high-salt conditions against six of ten tested organisms,"[1]; radial diffusion assay, 1% agarose, 10 mM phosphate buffer with 100 mM NaCl, result in words",inactive
CC(=O)N[C@@H](CCCCNC(=O)[C@H](CCCNC(=N)N)NC(=O)[C@H](Cc1ccc(O)cc1)NC(=O)[C@H](CC(C)C)NC(=O)[C@@H](N)CCCNC(=N)N)C(=O)N[C@@H](CCCCNC(=O)[C@H](CCCNC(=N)N)NC(=O)[C@H](Cc1ccc(O)cc1)NC(=O)[C@H](CC(C)C)NC(=O)[C@@H](N)CCCNC(=N)N)C(=O)N[C@@H](CCCCNC(=O)[C@H](CCCNC(=N)N)NC(=O)[C@H](Cc1ccc(O)cc1)NC(=O)[C@H](CC(C)C)NC(=O)[C@@H](N)CCCNC(=N)N)C(N)=O [K3R],"MIC, E. coli, H-Salt","[2]; ATCC 25922, 3 h",0.8 µM
same,"MIC, E. coli, L-Salt","[2]; ATCC 25922, 3 h",0.7 µM
same,"MIC, K. oxytoca, H-Salt","[3]; ATCC 49131, 3 h",0.8 µM
same,"MIC, K. oxytoca, L-Salt","[3]; ATCC 49131, 3 h",0.7 µM
same,"MIC, P. aeruginosa, H-Salt","[4]; ATCC 27853, 3 h",0.7 µM
same,"MIC, P. aeruginosa, L-Salt","[4]; ATCC 27853, 3 h",0.9 µM
same,"MIC, M. luteus, H-Salt","[5]; ATCC 49, 3 h",0.8 µM
same,"MIC, M. luteus, L-Salt","[5]; ATCC 49, 3 h",0.7 µM
same,"MIC, S. aureus, H-Salt","[6]; 29213, 3 h",0.6 µM
same,"MIC, S. aureus, L-Salt","[6]; 29213, 3 h",0.6 µM
same,"MIC, C. albicans, H-Salt","[7]; ATCC 37092, 3 h",0.7 µM
same,"MIC, C. albicans, L-Salt","[7]; ATCC 37092, 3 h",1.0 µM
same,"MIC, E. faecalis, H-Salt","[8]; ATCC 29212, 3 h",1.3 µM
same,"MIC, E. faecalis, L-Salt","[8]; ATCC 29212, 3 h",1.0 µM
same,"MIC, C. tropicalis, H-Salt","[9]; ATCC 37097, 3 h",0.6 µM
same,"MIC, C. tropicalis, L-Salt","[9]; ATCC 37097, 3 h",1.1 µM
same,"MIC, C. kefyr, H-Salt","Candida kefyr ATCC 37095; ATCC 37095, 3 h",0.7 µM
same,"MIC, C. kefyr, L-Salt","Candida kefyr ATCC 37095; ATCC 37095, 3 h",0.8 µM
same,"MIC, P. vulgaris, H-Salt","[10]; ATCC 49132, 3 h",1.0 µM
same,"MIC, P. vulgaris, L-Salt","[10]; ATCC 49132, 3 h",0.6 µM
CC(=O)N[C@@H](CCCNC(=O)[C@H](CCCNC(=N)N)NC(=O)[C@H](Cc1ccc(O)cc1)NC(=O)[C@H](CC(C)C)NC(=O)[C@@H](N)CCCNC(=N)N)C(=O)N[C@@H](CCCNC(=O)[C@H](CCCNC(=N)N)NC(=O)[C@H](Cc1ccc(O)cc1)NC(=O)[C@H](CC(C)C)NC(=O)[C@@H](N)CCCNC(=N)N)C(=O)N[C@@H](CCCNC(=O)[C@H](CCCNC(=N)N)NC(=O)[C@H](Cc1ccc(O)cc1)NC(=O)[C@H](CC(C)C)NC(=O)[C@@H](N)CCCNC(=N)N)C(=O)N[C@@H](CCCNC(=O)[C@H](CCCNC(=N)N)NC(=O)[C@H](Cc1ccc(O)cc1)NC(=O)[C@H](CC(C)C)NC(=O)[C@@H](N)CCCNC(=N)N)C(N)=O [O4R],"MIC, E. coli, H-Salt","[2]; ATCC 25922, two-stage radial diffusion assay, high-salt (underlay gel 10 mM sodium phosphate, 0.03% TSB, 0.02% Tween-20, with 100 mM NaCl), 37 °C, x-intercept of dose-response curve, triplicates",4.1 µM
same,"MIC, E. coli, L-Salt","[2]; ATCC 25922, two-stage radial diffusion assay, low-salt (underlay gel 10 mM sodium phosphate, 0.03% TSB, 0.02% Tween-20, without NaCl), 37 °C, x-intercept of dose-response curve, triplicates",0.7 µM
same,"MIC, K. oxytoca, H-Salt","[3]; ATCC 49131, radial diffusion assay, high-salt (100 mM NaCl), triplicates",2.4 µM
same,"MIC, K. oxytoca, L-Salt","[3]; ATCC 49131, radial diffusion assay, low-salt (without NaCl), triplicates",1.8 µM
same,"MIC, P. aeruginosa, H-Salt","[4]; ATCC 27853, radial diffusion assay, high-salt (100 mM NaCl), triplicates",4.8 µM
same,"MIC, P. aeruginosa, L-Salt","[4]; ATCC 27853, radial diffusion assay, low-salt (without NaCl), triplicates",2.1 µM
same,"MIC, M. luteus, H-Salt","[5]; ATCC 49,732, radial diffusion assay, high-salt (100 mM NaCl), triplicates",6.9 µM
same,"MIC, M. luteus, L-Salt","[5]; ATCC 49,732, radial diffusion assay, low-salt (without NaCl), triplicates",1.8 µM
same,"MIC, S. aureus, H-Salt","[6]; strain 29213, radial diffusion assay, high-salt (100 mM NaCl), triplicates",2.0 µM
same,"MIC, S. aureus, L-Salt","[6]; strain 29213, radial diffusion assay, low-salt (without NaCl), triplicates",7.3 µM
same,"MIC, C. albicans, H-Salt","[7]; ATCC 37092, radial diffusion assay, high-salt (100 mM NaCl), triplicates",1.6 µM
same,"MIC, C. albicans, L-Salt","[7]; ATCC 37092, radial diffusion assay, low-salt (without NaCl), triplicates",1.4 µM
same,"MIC, E. faecalis, H-Salt","[8]; ATCC 29212, radial diffusion assay, high-salt (100 mM NaCl), triplicates",> 500 µM
same,"MIC, E. faecalis, L-Salt","[8]; ATCC 29212, radial diffusion assay, low-salt (without NaCl), triplicates",6.6 µM
same,"MIC, C. tropicalis, H-Salt","[9]; ATCC 37097, radial diffusion assay, high-salt (100 mM NaCl), triplicates",1.5 µM
same,"MIC, C. tropicalis, L-Salt","[9]; ATCC 37097, radial diffusion assay, low-salt (without NaCl), triplicates",1.4 µM
same,"MIC, C. kefyr, H-Salt","Candida kefyr ATCC 37095; ATCC 37095, radial diffusion assay, high-salt (100 mM NaCl), triplicates",0.8 µM
same,"MIC, C. kefyr, L-Salt","Candida kefyr ATCC 37095; ATCC 37095, radial diffusion assay, low-salt (without NaCl), triplicates",0.7 µM
same,"MIC, P. vulgaris, H-Salt","[10]; ATCC 49132, radial diffusion assay, high-salt (100 mM NaCl), triplicates",2.2 µM
same,"MIC, P. vulgaris, L-Salt","[10]; ATCC 49132, radial diffusion assay, low-salt (without NaCl), triplicates",5.6 µM
